Source: patent US20240041042A1, “1-(PYRIDYL)-5-AZINYLPYRAZOLE DERIVATIVES, AND THEIR USE FOR CONTROL OF UNDESIRED PLANT GROWTH” (Bayer Aktiengesellschaft, priority 2020, published 2024)
Read-outs that look alike come from different tables or passages of the source.

What was measured:
Format in all cases: in vivo
Setaria viridis (SETVI) [1] = assay: Pre-emergence herbicidal action against SETVI
Method in brief: (§1)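 Pre-emergence soil-surface spray of compound, formulated as wettable powder or emulsion concentrate, in aqueous suspension or emulsion with 0.5% additive (600 l/ha; rate 320 g/ha or less). Activity rated visually after roughly 3 weeks in the greenhouse as a percentage of untreated controls, 0% meaning no difference.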

[2] = test system: Pharbitis purpurea (PHBPU); assay: Post-emergence herbicidal action against PHBPU; conditions: dosage 320 g/ha
Method in brief: (§2)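 Values are percent visual activity (0% like control, 100% plants dead) after about 3 weeks in the greenhouse. Treatment: post-emergence spray at one-leaf stage, 600 l/ha spray volume, 0.5% additive, doses 320 g/ha or lower.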

Setaria viridis (SETVI) [3] = assay: Post-emergence herbicidal action against SETVI
Method in brief: as §2

Lolium rigidum (LOLRI) [4] = assay: Post-emergence herbicidal action against LOLRI
Method in brief: as §2

Avena fatua (AVEFA) [5] = assay: Pre-emergence herbicidal action against AVEFA; conditions: visual scoring after about 3 weeks vs untreated controls
Method in brief: as §1

Lolium rigidum (LOLRI) [6] = assay: Pre-emergence herbicidal action against LOLRI
Method in brief: as §1

[7] = test system: Abutilon theophrasti (ABUTH); assay: Post-emergence herbicidal action against ABUTH; conditions: visual rating about 3 weeks after treatment vs untreated controls (100% = plants have died, 0% = like control plants)
Method in brief: as §2

[8] = test system: Echinochloa crus-galli (ECHCG); assay: Post-emergence herbicidal action against ECHCG
Method in brief: as §2

[9] = test system: Verconica persica (VERPE); assay: Pre-emergence herbicidal action against VERPE; conditions: dosage 320 g/ha
Method in brief: as §1

[10] = test system: Amaranthus retroflexus (AMARE); assay: Pre-emergence herbicidal action against AMARE; conditions: visual scoring after about 3 weeks vs untreated controls
Method in brief: as §1

Viola tricolor (VIOTR) [11] = assay: Post-emergence herbicidal action against VIOTR
Method in brief: as §2

Avena fatua (AVEFA) [12] = assay: Post-emergence herbicidal action against AVEFA; conditions: visual rating about 3 weeks after treatment
Method in brief: as §2

[13] = test system: Pharbitis purpurea (PHBPU); assay: Pre-emergence herbicidal action against PHBPU
Method in brief: as §1

[14] = test system: Alopecurus myosuroides (ALOMY); assay: Pre-emergence herbicidal action against ALOMY; conditions: scored visually after about 3 weeks, 100% = plants have died
Method in brief: as §1

[15] = test system: Echinochloa crus-galli (ECHCG); assay: Pre-emergence herbicidal action against ECHCG
Method in brief: as §1

[16] = test system: Alopecurus myosuroides (ALOMY); assay: Post-emergence herbicidal action against ALOMY; conditions: visual rating about 3 weeks after treatment vs untreated controls (100% = plants have died, 0% = like control plants)
Method in brief: as §2

[17] = test system: Matricaria inodora (MATIN); assay: Post-emergence herbicidal action against MATIN
Method in brief: as §2

[18] = test system: Amaranthus retroflexus (AMARE); assay: Post-emergence herbicidal action against AMARE
Method in brief: as §2

[19] = test system: Verconica persica (VERPE); assay: Post-emergence herbicidal action against VERPE
Method in brief: as §2

Viola tricolor (VIOTR) [20] = assay: Pre-emergence herbicidal action against VIOTR
Method in brief: as §1

[21] = test system: Polygonum convolvulus (POLCO); assay: Pre-emergence herbicidal action against POLCO
Method in brief: as §1

[22] = test system: Matricaria inodora (MATIN); assay: Pre-emergence herbicidal action against MATIN; conditions: dosage 320 g/ha
Method in brief: as §1

[23] = test system: Polygonum convolvulus (POLCO); assay: Post-emergence herbicidal action against POLCO
Method in brief: as §2

Oryza sativa (ORYSA) = conditions: crop plant compatibility
Method in brief: (§3)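 One-leaf-stage crops (2–3 wk post-sowing, sandy loam, greenhouse) sprayed on green parts; 0.5% additive, 600 l/ha water. Rated by eye ~3 wk later, % vs untreated; suffixes a/b/c mark different dosages.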

Zea mays (ZEAMX) = conditions: for Post-emergence action against ZEAMX in %: crop plant compatibility, 80 g/ha, effect vs untreated controls
Method in brief: as §3

[24] = 80 g/ha, visual rating about 3 weeks after treatment vs untreated controls (100% = plants have died, 0% = like control plants)
[25] = 320 g/ha, visual rating about 3 weeks after treatment
[26] = 80 g/ha, effect in comparison to untreated controls

SMILES | Pre-emergence action against SETVI in % (Setaria viridis (SETVI) [1]; dosage 320 g/ha) [%] | Post-emergence action against SETVI in % (Setaria viridis (SETVI) [3]; dosage 80 g/ha) [%] | Post-emergence action against SETVI in % (Setaria viridis (SETVI) [3]; dosage 320 g/ha) [%] | Post-emergence action against LOLRI in % (Lolium rigidum (LOLRI) [4]; dosage 80 g/ha) [%] | Post-emergence action against LOLRI in % (Lolium rigidum (LOLRI) [4]; dosage 320 g/ha) [%] | Pre-emergence action against AVEFA in % (Avena fatua (AVEFA) [5]; 320 g/ha) [%] | Pre-emergence action against LOLRI in % (Lolium rigidum (LOLRI) [6]; dosage 320 g/ha) [%] | Post-emergence action against ECHCG in % ([8]; dosage 320 g/ha) [%] | Pre-emergence action against VERPE in % [9] [%] | Pre-emergence action against AMARE in % ([10]; 80 g/ha) [%] | Pre-emergence action against AMARE in % ([10]; 320 g/ha) [%] | Post-emergence action against VIOTR in % (Viola tricolor (VIOTR) [11]; 320 g/ha) [%] | Pre-emergence action against PHBPU in % ([13]; dosage 320 g/ha) [%] | Pre-emergence action against ALOMY ([14]; 320 g/ha) [%] | Pre-emergence action against ECHCG in % ([15]; dosage 320 g/ha) [%] | Post-emergence action against AMARE in % [18, 24] [%] | Pre-emergence action against VIOTR in % (Viola tricolor (VIOTR) [20]; 320 g/ha, Viola tricolor) [%] | Pre-emergence action against VIOTR in % (Viola tricolor (VIOTR) [20]; dosage 80 g/ha) [%] | Pre-emergence action against POLCO in % ([21]; dosage 320 g/ha) [%] | Pre-emergence action against MATIN in % [22] [%] | further results
COC(=O)COc1nn(-c2ncccc2F)c(-c2ccc(F)nc2)c1C1CC1 [Example I-42] | 100 | 90 | 90 | 100 | 100 | 100 | 100 | 90 | 100 | 90 | 100 | 90 | 90 | 100 | 100 | 90 | 100 | 100 | 90 | 100 | Pre-emergence action against SETVI in % (Setaria viridis (SETVI) [1]; dosage 80 g/ha): 100%; Post-emergence action against PHBPU in % [2]: 90%; Post-emergence action against ABUTH in % ([7]; 80 g/ha): 90%; Post-emergence action against ABUTH in % ([7]; 320 g/ha): 90%; Post-emergence action against ECHCG in % ([8]; dosage 80 g/ha): 90%; Post-emergence action against VIOTR in % (Viola tricolor (VIOTR) [11]; 80 g/ha): 90%; Post-emergence action against AVEFA in % (Avena fatua (AVEFA) [12]; 80 g/ha): 100%; Post-emergence action against AVEFA in % (Avena fatua (AVEFA) [12]; 320 g/ha): 100%; Pre-emergence action against ALOMY ([14]; 80 g/ha): 100%; Pre-emergence action against ECHCG in % ([15]; dosage 80 g/ha): 100%; Post-emergence action against ALOMY in % ([16]; 80 g/ha): 100%; Post-emergence action against ALOMY in % ([16]; 320 g/ha): 100%; Post-emergence action against MATIN in % ([17]; dosage 80 g/ha): 80%; Post-emergence action against MATIN in % ([17]; dosage 320 g/ha): 90%; Post-emergence action against AMARE in % [18, 25]: 90%; Post-emergence action against VERPE in % ([19]; 320 g/ha, VERPE): 90%; Post-emergence action against VERPE in % ([19]; dosage 80 g/ha): 90%; Post-emergence action against POLCO in % ([23]; dosage 80 g/ha): 80%; Post-emergence action against POLCO in % ([23]; dosage 320 g/ha): 90%
C[C@@H](Oc1nn(-c2ccccn2)c(-c2ccc(F)nc2)c1Cl)C(=O)NCC(=O)O [Example I-338] | 100 | 90 | 90 | – | 90 | 90 | 100 | 80 | 100 | 100 | 100 | 80 | 80 | 100 | 100 | 80 | 100 | 100 | 100 | 80 | Pre-emergence action against SETVI in % (Setaria viridis (SETVI) [1]; dosage 80 g/ha): 100%; Pre-emergence action against AVEFA in % (Avena fatua (AVEFA) [5]; 80 g/ha): 90%; Pre-emergence action against LOLRI in % (Lolium rigidum (LOLRI) [6]; dosage 80 g/ha): 100%; Post-emergence action against AVEFA in % (Avena fatua (AVEFA) [12]; 320 g/ha): 90%; Pre-emergence action against ALOMY ([14]; 80 g/ha): 100%; Pre-emergence action against ECHCG in % ([15]; dosage 80 g/ha): 90%; Post-emergence action against ALOMY in % ([16]; 320 g/ha): 90%; Post-emergence action against MATIN in % ([17]; dosage 320 g/ha): 90%; Post-emergence action against AMARE in % [18, 25]: 80%; Post-emergence action against VERPE in % ([19]; 320 g/ha, VERPE): 90%; Pre-emergence action against POLCO in % ([21]; dosage 80 g/ha): 100%; Post-emergence action against ORYSA in % (Oryza sativa (ORYSA); [26]): 0%; Post-emergence action against ZEAMX in % (Zea mays (ZEAMX)): 0%; Post-emergence action against POLCO in % ([23]; dosage 80 g/ha): 80%; Post-emergence action against POLCO in % ([23]; dosage 320 g/ha): 80%
CC(C)=NOC(=O)[C@@H](C)Oc1nn(-c2ncccc2F)c(-c2ccc(F)nc2)c1Br [Example I-374] | 100 | 90 | – | 90 | – | 100 | 100 | – | 100 | 100 | 100 | – | 90 | 100 | 100 | 80 | 100 | 90 | 90 | 90 | Pre-emergence action against LOLRI in % (Lolium rigidum (LOLRI) [6]; dosage 80 g/ha): 80%; Post-emergence action against ABUTH in % ([7]; 80 g/ha): 80%; Post-emergence action against AVEFA in % (Avena fatua (AVEFA) [12]; 80 g/ha): 90%; Pre-emergence action against ALOMY ([14]; 80 g/ha): 90%; Post-emergence action against ALOMY in % ([16]; 80 g/ha): 100%; Post-emergence action against MATIN in % ([17]; dosage 80 g/ha): 80%; Post-emergence action against VERPE in % ([19]; dosage 80 g/ha): 80%; Pre-emergence action against POLCO in % ([21]; dosage 80 g/ha): 80%; Post-emergence action against ORYSA in % (Oryza sativa (ORYSA); 20 g/ha, effect vs untreated controls): 10%; Post-emergence action against ZEAMX in % (crop plant compatibility) (Zea mays (ZEAMX); 20 g/ha, ZEAMX, effect in comparison to untreated controls): 10%
CCOC(=O)COc1nn(-c2ncccc2C)c(-c2ccc(F)nc2)c1Br [Example I-321] | 100 | 90 | 90 | 100 | 100 | 90 | 100 | 90 | 100 | 100 | 100 | 80 | 90 | 100 | 100 | 80 | 100 | 90 | 100 | 100 | Post-emergence action against PHBPU in % [2]: 90%; Pre-emergence action against LOLRI in % (Lolium rigidum (LOLRI) [6]; dosage 80 g/ha): 100%; Post-emergence action against ECHCG in % ([8]; dosage 80 g/ha): 90%; Post-emergence action against VIOTR in % (Viola tricolor (VIOTR) [11]; 80 g/ha): 80%; Post-emergence action against AVEFA in % (Avena fatua (AVEFA) [12]; 80 g/ha): 90%; Post-emergence action against AVEFA in % (Avena fatua (AVEFA) [12]; 320 g/ha): 90%; Pre-emergence action against PHBPU in % ([13]; dosage 80 g/ha): 80%; Pre-emergence action against ECHCG in % ([15]; dosage 80 g/ha): 100%; Post-emergence action against ALOMY in % ([16]; 80 g/ha): 90%; Post-emergence action against ALOMY in % ([16]; 320 g/ha): 100%; Post-emergence action against MATIN in % ([17]; dosage 320 g/ha): 80%; Post-emergence action against AMARE in % [18, 25]: 80%; Post-emergence action against VERPE in % ([19]; 320 g/ha, VERPE): 90%; Pre-emergence action against POLCO in % ([21]; dosage 80 g/ha): 90%; Post-emergence action against ORYSA in % (Oryza sativa (ORYSA); [26]): 0%; Post-emergence action against ZEAMX in % (Zea mays (ZEAMX)): 0%; Post-emergence action against POLCO in % ([23]; dosage 80 g/ha): 80%; Post-emergence action against POLCO in % ([23]; dosage 320 g/ha): 90%
